The values below come from patent US20160002273A1, “THIENO[3,2-D]PYRIMIDINE-6-CARBOXAMIDES AND ANALOGUES AS SIRTUIN MODULATORS” (GLAXOSMITHKLINE LLC, priority 2013, published 2016).

Series [1] can be described thus: HPLC based lipophilicity assay (CHI LogD). The class given is physicochemical. The note with it: CHI values by reverse phase HPLC transformed to a LogD scale.
Series [2] can be described thus: Kinetic solubility by chemi-luminescent nitrogen detection (CLND). The note with it: aqueous buffer, kinetic from dmso stock, DMSO stock incubated 1 hr in phosphate buffered saline pH 7.4, filtered. The class given is physicochemical.
The target of series [3] is T1, SIRT2 (Homo sapiens, UniProt Q8IXJ6).
T1 sequence (Q8IXJ6 1-389): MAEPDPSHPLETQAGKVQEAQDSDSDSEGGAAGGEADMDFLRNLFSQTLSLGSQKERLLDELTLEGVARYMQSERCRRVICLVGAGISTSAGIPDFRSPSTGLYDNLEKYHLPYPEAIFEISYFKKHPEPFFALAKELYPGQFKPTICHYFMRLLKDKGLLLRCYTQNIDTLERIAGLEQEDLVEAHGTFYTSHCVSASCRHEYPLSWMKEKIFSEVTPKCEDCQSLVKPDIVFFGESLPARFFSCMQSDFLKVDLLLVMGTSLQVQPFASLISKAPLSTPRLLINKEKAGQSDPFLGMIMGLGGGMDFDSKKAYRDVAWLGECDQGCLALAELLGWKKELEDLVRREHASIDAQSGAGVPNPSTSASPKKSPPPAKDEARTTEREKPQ
Briefly: SIRT2 deacetylation of Trp 5-mer peptide, OAADPr mass spec assay. The class given is biochemical. On the set-up: His-SIRT2(1-389).

Series [4] concerns the target T2, SIRT1 (Homo sapiens, UniProt Q96EB6).
T2 sequence (Q96EB6 1-747): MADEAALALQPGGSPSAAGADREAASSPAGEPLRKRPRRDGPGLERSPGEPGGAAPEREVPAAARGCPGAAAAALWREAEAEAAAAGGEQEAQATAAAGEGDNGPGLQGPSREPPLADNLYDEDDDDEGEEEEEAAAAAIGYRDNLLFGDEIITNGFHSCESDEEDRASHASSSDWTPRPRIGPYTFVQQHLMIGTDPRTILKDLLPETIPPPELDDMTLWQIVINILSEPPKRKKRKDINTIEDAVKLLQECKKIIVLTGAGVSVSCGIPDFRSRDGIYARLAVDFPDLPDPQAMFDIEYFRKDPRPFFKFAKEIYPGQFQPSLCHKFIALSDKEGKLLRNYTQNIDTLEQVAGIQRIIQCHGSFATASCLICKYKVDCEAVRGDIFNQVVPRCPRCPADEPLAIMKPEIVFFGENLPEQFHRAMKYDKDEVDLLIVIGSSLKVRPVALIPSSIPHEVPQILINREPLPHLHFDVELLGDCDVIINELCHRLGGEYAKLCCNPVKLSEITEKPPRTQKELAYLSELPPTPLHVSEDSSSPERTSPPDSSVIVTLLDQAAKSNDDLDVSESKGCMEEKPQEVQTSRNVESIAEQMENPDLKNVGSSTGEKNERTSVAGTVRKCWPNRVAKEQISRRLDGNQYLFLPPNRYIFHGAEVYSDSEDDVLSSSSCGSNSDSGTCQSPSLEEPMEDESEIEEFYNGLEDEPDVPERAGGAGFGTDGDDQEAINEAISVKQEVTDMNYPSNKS
Briefly: SIRT1 deacetylation of Trp 5-mer peptide, OAADPr mass spec assay.
Protocol: (§1) All assays were performed at room temperature in reaction buffer (50 mM HEPES, pH 7.5, 150 mM NaCl, 1 mM DTT, 0.05% BSA). […] To prepare the assays for analysis, 20 μL of reaction volume was mixed in 80 μL of 50:50 acetonitrile:methanol mixture. […] Peak data was integrated using RapidFire Integrator software (Agilent, Santa Clara, Calif.).

Series [5] has as its target T3, SIRT3 (Homo sapiens, UniProt Q9NTG7).
T3 sequence (Q9NTG7 102-399): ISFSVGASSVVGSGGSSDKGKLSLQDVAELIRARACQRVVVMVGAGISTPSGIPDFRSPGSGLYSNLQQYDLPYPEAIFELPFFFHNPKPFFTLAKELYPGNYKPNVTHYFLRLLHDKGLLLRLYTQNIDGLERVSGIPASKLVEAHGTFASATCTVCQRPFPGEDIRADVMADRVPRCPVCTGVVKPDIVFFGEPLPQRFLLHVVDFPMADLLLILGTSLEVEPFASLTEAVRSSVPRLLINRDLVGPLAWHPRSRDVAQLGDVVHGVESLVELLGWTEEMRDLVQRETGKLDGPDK
Briefly: SIRT3 deacetylation of Trp 5-mer peptide, OAADPr mass spec assay.
Protocol: as §1

In series [6] the test system is SIRT1/2/3. Briefly: SIRT1/2/3 biochemical assay, statements spanning all three enzymes. Also noted: species or system human. The settings on record: for SIRT1/2/3 inhibitory activity, in words: across SIRT1, SIRT2 and SIRT3.
Series [7] has as its target T2, SIRT1. The settings on record: at 1 mM; Galli et al. (2012); cited from earlier work.
The target of series [8] is T1, SIRT2. The note with it: at 1 mM; Galli et al. (2012); cited from earlier work.
The subject of series [9] is sirtuin mediated deacetylation of acetyl-p65. Briefly: Acetyl-p65 assay in U2OS cells (AlphaScreen). The settings on record: FIG. 6. The class given is cell-based. The procedure:
In certain embodiments, U2OS cells were counted by hemocytometer and diluted to a concentration of 1.5×10^5 cell/ml. BacMam p65 and BacMam p300-HAT viruses were added to the diluted cells at 1% and 1% (vol/vol). 40 μl aliquots of the cell suspensions containing the viruses were plated onto a 384 well plate with a multi-drop dispenser. After 7 hours, a 2-fold serial dilution of Compounds 25, 28 and Compound 4, hereafter referred to as the test compounds, was carried out in DMSO. The test compounds were subsequently diluted with medium (20-fold) in an intermediate compound plate, and 4 μL of each test compound was transferred by a liquid handler from the intermediate plate to a cell plate. 24 hours post viral transduction, the medium in the cell plate was removed by inverting and flicking the plate, and blotting the plate with paper towels. 30 μl of lysis buffer (25 mM HEPES pH 7.4, 0.5% Triton X-100, 1 mg/ml Dextran 500, 0.1% BSA, 300 mM NaCl, 2 mM MgCl2, 1×protease inhibitor cocktail) was added to each well to lyse the cells. After incubation of the cells with lysis buffer for 30 minutes at room temp, 10 μl and 3 μl aliquots of the cell lysates were transferred to assay plates, and the assay plate containing 3 μl aliquot of cell lysates was diluted with an additional 7 μl of lysis buffer to obtain a final volume of 10 μl. Acetyl-p65 and total p65 protein in cell lysates were measured using the AlphaScreen assay format (PerkinElmer). The antibodies used to detect acetyl-p65 protein were biotinylated anti-HA antibody (Roche, 12158167001) and anti-acetylated K310-p65 antibody (Abcam, ab19870). The antibodies used to detect total p65 protein were biotinylated anti-HA antibody (Roche, 12158167001) and anti-p65 antibody (Santa Cruz, sc109). […] After incubating the plates for another 2 hrs in the dark, the plates were read by a PHERAstar microplate reader. […]

Setting [10] is: Trp 5-mer peptide and NAD at KM, mean of at least three determinations, read-out: IC50 (μM) SIRT2.
Setting [11] is: Trp 5-mer peptide, class symbols, read-out: Trp SIRT2_IC50.
Where [12] appears, read: IC50 (μM) SIRT1, Trp 5-mer peptide and NAD at KM, mean of at least three determinations.
The mark [13] stands for this setting: Trp SIRT1_IC50, Trp 5-mer peptide, class symbols.
Setting [14] is: Trp SIRT3_IC50, Trp 5-mer peptide, class symbols.
[15] abbreviates: read-out: IC50 (μM) SIRT1, Trp 5-mer peptide and NAD at KM, mean of at least three determinations.
Where [16] appears, read: read-out: IC50 (μM) SIRT3, Trp 5-mer peptide and NAD at KM, mean of at least three determinations.
Setting [17] is: Trp SIRT2_IC50, Trp 5-mer peptide, class symbols.
Setting [18] is: IC50 (μM) SIRT3, Trp 5-mer peptide and NAD at KM, mean of at least three determinations.

≈ marks a conversion by molar mass, not a printed value. Where two headings read alike, the source gives them in different places. Where only a bound is given, the exact number is not on record here.

In series [1], `CCNC(=O)c1cccc(C(=O)NCCC2CCN(c3ncnc4cc(C(N)=O)sc34)CC2)c1` [Compound 11a, N^1-(2-(1-(6-carbamoylthieno[3,2-d]pyrimidin-4-yl)piperidin-4-yl)ethyl)-N^3-ethylisophthalamide] displayed a log distribution coefficient (LogD) of 2.09. This molecule displayed a solubility at 1 hr in [2] of 19 µM (≈ 9.13 µg/mL). Besides, the IC50 in series [3] (setting [10]) was 0.005 µM; in series [3] (setting [11]), below 1 µM; in series [4] (setting [12]), 0.014 µM; in series [4] (setting [13]) it was below 1 µM; in series [5] (SIRT3 IC50, as stated in text), 0.001 µM; in series [5] (setting [14]) it was below 1 µM.
In the case of `CC(C)(C)C(=O)NCCC1CCN(c2nccc3cc(C(N)=O)sc23)CC1` [Compound 38, 7-(4-(2-pivalamidoethyl)piperidin-1-yl)thieno[2,3-c]pyridine-2-carboxamide], in [6] (compared to Compound 28, range across the three enzymes), the “fold reduction in SIRT1/2/3 potency” value is listed as 30-63 fold. In addition, the IC50 is 0.3 µM in series [3] (setting [10]); below 1 µM in series [3] (setting [11]); below 1 µM in series [4] (setting [13]); 0.49 µM in [4] (setting [15]); 1 to 10 µM in series [5] (setting [14]); 2.1 µM in series [5] (setting [16]).
For the molecule `c1cncc(-c2c[nH]nn2)c1` [3-(1H-1,2,3-triazol-4-yl)pyridine], the SIRT1 activity remaining in [7] is 88%. The SIRT2 activity remaining in [8] was 92%.
Consider `NC(=O)C1CCCc2c1[nH]c1ccc(Cl)cc21` (centres unmarked) [4, EX-527, EX-527, reference compound], for which the “inhibition of sirtuin mediated deacetylation of acetyl-p65” value in series [9] was “inhibit”.
Take `NC(=O)c1cc2ncnc(N3CCCCC3)c2s1` [Compound 21, 4-(Piperidin-1-yl)thieno[3,2-d]pyrimidine-6-carboxamide]: the “SIRT1/2/3 inhibitory activity, in words” value in series [6] is “micromolar levels”. Further, the IC50 in series [3] (setting [10]) is 1.4 µM; in [3] (setting [17]), 1 to 10 µM; in series [4] (setting [13]) it was above 10 µM; in [4] (setting [15]), 15 µM; in series [5] (setting [14]), 1 to 10 µM; in series [5] (setting [16]), 8.6 µM.
Turning to `CCNc1ncnc2cc(C(N)=O)sc12` [Compound 22, 4-(Ethylamino)thieno[3,2-d]pyrimidine-6-carboxamide], the “SIRT1/2/3 inhibitory activity, in words” value in [6] is “not conserved”. Also, the IC50 is 49 µM in series [3] (setting [10]); above 10 µM in series [3] (setting [17]); above 50 µM in series [4] (setting [12]); above 10 µM in [4] (setting [13]); above 50 µM in series [5] (setting [18]); above 10 µM in series [5] (setting [14]).
Take `NC(=O)c1cc2ncnc(Cl)c2s1` [Compound 14, 4-chlorothieno[3,2-d]pyrimidine-6-carboxamide]: the “SIRT1/2/3 inhibitory activity, in words” value in [6] was “not conserved”. Moreover, the IC50 in series [3] (setting [10]) is above 50 µM; in series [3] (setting [11]), above 10 µM; in series [4] (setting [12]), above 50 µM; in [4] (setting [13]), above 10 µM; in series [5] (setting [18]) it was above 50 µM; in [5] (setting [14]), above 10 µM.
With `CC(=S)NCCC1CCN(c2ncnc3cc(C(N)=O)sc23)CC1` [Compound 25, 4-(4-(2-ethanethioamidoethyl)piperidin-1-yl)thieno[3,2-d]pyrimidine-6-carboxamide], the “inhibition of sirtuin mediated deacetylation of acetyl-p65” value in series [9] is “inhibit”. Moreover, the IC50 is 0.03 µM in series [3] (setting [10]), below 1 µM in series [3] (setting [17]), below 1 µM in series [4] (setting [13]) and 0.056 µM in [4] (setting [15]).

By LogD is commonly meant lipophilicity at a set pH, counting ionised and neutral species. Read a low LogD as lower lipophilicity. What is called solubility is how much of the substance goes into solution per volume.
